Values quoted from earlier work, collected in patent publication US20190105278A1, “SHELLAC MICROCAPSULE FORMULATIONS AND COMPOSITIONS” (CONARIS RESEARCH INSTITUTE AG, priority 2016, published 2019).

Details: EFSA; for acceptable daily intake (ADI): preparations with at least 90% purity

Row | Compound | upper systemic intake limit | acceptable daily intake (ADI)
1 | CC(=O)Nc1ccc(S(=O)(=O)[O-])c2cc(S(=O)(=O)[O-])c(N=Nc3ccc(N=Nc4ccc(S(=O)(=O)[O-])cc4)c4ccc(S(=O)(=O)[O-])cc34)c(O)c12.[Na+].[Na+].[Na+].[Na+] [brilliant black BN] | 5 mg/kg | 5 mg/kg body weight
2 | O=C1/C(=C2\Nc3ccc(S(=O)(=O)[O-])cc3C2=O)Nc2ccc(S(=O)(=O)[O-])cc21.[Na+].[Na+] [indigo carmine] | – | 5 mg/kg body weight
3 | CCN(CC)c1ccc(C(=C2C=CC(=[N+](CC)CC)C=C2)c2cc(O)c(S(=O)(=O)[O-])cc2S(=O)(=O)[O-])cc1.CCN(CC)c1ccc(C(=C2C=CC(=[N+](CC)CC)C=C2)c2cc(O)c(S(=O)(=O)[O-])cc2S(=O)(=O)[O-])cc1.[Ca+2] [patent blue V] | 5 mg/kg | 5 mg/kg body weight
